# Experimental data from patent US20220213119A1, “THIENOHETEROCYCLIC DERIVATIVE, PREPARATION METHOD THEREFOR AND MEDICAL USE THEREOF” (Jiangsu Hengrui Medicine Ca, Lid., priority 2019, published 2022).
# Legend:
# ERK1 = molecular target: T1, ERK1 (Homo sapiens, UniProt P27361); test: ERK1 enzyme activity test (ADP-Glo Kinase Assay); format: biochemical; conditions: chemiluminescence
# T1 construct: purchased R&D 1879-KS-010
# Method: (§1) The purpose of this experiment is to detect the inhibitory ability of the compounds on the ERK1 enzyme activity and evaluate the activity of the compounds in vitro according to IC50. The ADP-Glo™ Kinase Assay Kit was used in this experiment. Under the action of enzyme, the substrate was phosphorylated and ADP was produced at the same time. The ADP-Glo Reagent was added to remove unreacted ATP in the reaction system. The kinase detection reagent was used to detect the ADP produced by the reaction. In the presence of the compound, the inhibition rate of the compound was calculated by measuring the signal value.
# Enzyme and substrate preparation: ERK1 (1879-KS-010, R&D) and substrate (AS-61777, anaspec) were prepared to be 0.75 ng/μl and 100 μM respectively in the buffer. The enzyme solution and substrate solution were then prepared into a mixed solution at a volume ratio of 2:1 for later use. ATP was diluted to 300 μM with the buffer. The compounds were dissolved in DMSO (dimethyl sulfoxide, Shanghai Titan Scientific Co., Ltd.) to prepare a stock solution with an initial concentration of 20 mM, and then Bravo was used to prepare solutions of the compounds. Finally, a 3 μL of a mixed solution of enzyme and substrate, and 1 μL of different concentrations of the compound (the initial concentration is 50 μM, 4-fold dilution) were added to each well of the 384-well plate, and the plate was incubated at 30° C. for 10 minutes, and finally 1 μL of 300 μM ATP solution was added to each well, and the plate was incubated at 30° C. for 2 hours. Then 5 μL of ADP-Glo was added, and the plate was incubated at 30° C. for 40 minutes. Then 10 μL of Kinase detection buffer was added, and the plate was incubated at 30° C. for 40 minutes. The 384-well plate was taken out and placed in a microplate reader (BMG labtech, PHERAstar FS), and the chemiluminescence was measured by the microplate reader.
# (§2) The data were processed and analyzed with Microsoft Excel, Graphpad Prism 5.
# [1] = Pharmacokinetics assay in mice; format: in vivo; conditions: mouse, po, C57 mice (female), intragastric, 2 mg/kg, plasma; for Vd/F: read-out: Apparent distribution volume Vz/F; for AUC: read-out: Area under curve AUC; for CL/F: read-out: Clearance CLz/F; for half-life: read-out: Half Life T1/2 (converted); for Cmax: read-out: Plasma Concentration Cmax; for MRT: read-out: Residence Time MRT
# Method: Mice were used as the test animal. The drug concentration in plasma at different time points was determined by LC/MS/MS method after administration of compound 3-P2, compound 4-P2, compound 9-P2, compound 10-P2, compound 12 and compound 15. The pharmacokinetic behavior of the compounds of the present disclosure in mice was studied, and the pharmacokinetic characteristics were evaluated.
# 54 of C57 mice (female) were equally divided into 6 groups, which were purchased from Shanghai Jiesijie Laboratory Animal Co., Ltd., with the animal production license number: SOCK (Shanghai) 2013-0006.
# A certain amount of compound was weighted, followed by the addition of 5% volume of DMSO and 5% Tween 80 to dissolve it, then followed by the addition of 90% normal saline to prepare a colorless and clear solution of 0.1 mg/mL.
# After an overnight fast, C57 mice were intragastrically administered the test compound at an administration dose of 2 mg/kg and an administration volume of 0.2 ml/10 g.
# The mice were intragastrically administered the test compounds. 0.1mL of blood was taken before the administration and at 0.25, 0.5, 1.0, 2.0, 4.0, 6.0, 8.0, 11.0, 24.0 hours after the administration. The blood was placed in a heparinized test tube, and centrifuged at 3500 rpm for 10 minutes. The plasma was separated and stored at −20° C.
# The content of the test compound in the plasma of mice after […] administration of the test compound at different concentrations was determined: 25 μl of mouse plasma at each time point after the administration was taken, followed by the addition of 50 μl of the internal standard camptothecin solution (100 ng/mL) and 200 μl of acetonitrile. The resulting solution was vortex-mixed for 5 minutes, and centrifuged for 10 minutes (4000 rpm). 4μl of the supernatant was taken from the plasma samples for LC/MS/MS analysis.
# ERK2 = molecular target: T2, ERK2 (Homo sapiens, UniProt P28482); test: ERK2 enzyme activity test (ADP-Glo Kinase Assay); format: biochemical; conditions: chemiluminescence
# T2 construct: purchased R&D 1230-KS-010
# T2 sequence (P28482 whole entry): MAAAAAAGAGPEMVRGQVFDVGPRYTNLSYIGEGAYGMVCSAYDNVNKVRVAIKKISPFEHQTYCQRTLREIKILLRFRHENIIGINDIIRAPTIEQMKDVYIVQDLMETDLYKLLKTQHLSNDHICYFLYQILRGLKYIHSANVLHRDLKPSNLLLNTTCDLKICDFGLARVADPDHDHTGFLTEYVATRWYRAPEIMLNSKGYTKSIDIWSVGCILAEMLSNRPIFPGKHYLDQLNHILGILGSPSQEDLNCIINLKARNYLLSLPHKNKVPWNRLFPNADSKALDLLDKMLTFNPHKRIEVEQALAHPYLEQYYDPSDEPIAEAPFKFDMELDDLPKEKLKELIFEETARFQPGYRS
# Method: as §1, with “ERK2” for “ERK1”
# Enzyme and substrate preparation: ERK2 (1230-KS-010, R&D) and substrate (Custom peptides, Gill Biochemical) were prepared to be 0.75 ng/μl and 1500 μM in the buffer (40 mM Tris, 20 mM MgCl2, 0.1 mg/mL BSA, 50 μM DTT). The enzyme solution and substrate solution were then prepared into a mixed solution at a volume ratio of 2:1 for later use. ATP was diluted to 500 μM with the buffer. The compounds were dissolved in DMSO (dimethyl sulfoxide, Shanghai Titan Scientific Co., Ltd.) to prepare a stock solution with an initial concentration of 20 mM, and then Bravo was used to prepare solutions of the compounds. Finally, a 3 μL of a mixed solution of enzyme and substrate, and 1 μL of different concentrations of the compound (the initial concentration is 50 μM, 4-fold dilution) were added to each well of the 384-well plate, and the plate was incubated at 30° C. for 10 minutes, and finally 1 μL of 500 μM ATP solution was added to each well, and the plate was incubated at 30° C. for 2 hours. Then 5 μL of ADP-Glo was added, and the plate was incubated at 30° C. for 40 minutes. Then 10 μL of Kinase detection buffer was added, and the plate was incubated at 30° C. for 40 minutes. The 384-well plate was taken out and placed in a microplate reader (BMG labtech, PHERAstar FS), and the chemiluminescence was measured by the microplate reader.
# as §2
# Colo205 cells = test: In vitro proliferation inhibition test on Colo205 tumor cells (CellTiter-Glo); format: cell-based; conditions: Homo sapiens, COLO 205, 72 h; Colo205 cell proliferation, 3 days of culture, CTG
# Method: The purpose of this experiment is to test the inhibitory activity of the compounds on the proliferation of Colo205 cells (CCL-222, ATCC) in vitro. The cells were treated with different concentrations of compounds in vitro. After 3 days of culture, the cell proliferation was detected using CTG (CellTiter-Glo® Luminescent Cell Viability Assay, Promega, catalog number: G7573) reagent. The in vitro activity of the compounds was evaluated according to the IC50 value.
# In the following, taking the in vitro proliferation inhibition test method of Colo205 cells as an example, the method in the present disclosure for testing the in vitro proliferation inhibitory activity of the compounds of the present disclosure is described. This method is also applicable to, but not limited to, the in vitro proliferation inhibitory activity test on other tumor cells.
# Colo205 cells were digested, centrifuged and then resuspended. The single cell suspension was mixed well, and the density of viable cells was adjusted to 5.0×10^4 cells/ml with cell culture medium (RPMI1640+2% FBS), and 95 μl/well was added to a 96-well cell culture plate. Only 100 μl medium was added to the peripheral wells of the 96-well plate. The culture plate was incubated in an incubator for 24 hours (37° C., 5% CO2).
# The compound was dissolved in DMSO (dimethyl sulfoxide, Shanghai Titan Scientific Co., Ltd.) and prepared into a stock solution with an initial concentration of 20 mM. The initial concentration of the small molecule compound is 2 mM, and then 4-fold diluted into to 9 points, and the tenth point is DMSO. Another 96-well plate was taken, 90 μl of cell culture medium (RPMI1640+2% FBS) was added to each well, then 10 μl of different concentrations of the test sample was added to each well, the mixture was mixed well, and then 5 μl of different concentrations of the test sample was added to the cell culture plate, and each sample has two duplicate holes. The culture plate was incubated in the incubator for 3 days (37° C., 5% CO2). The 96-well cell culture plate was taken out, 50 μl CTG solution was added to each well, and the plate was incubated for 10 minutes at room temperature. In a microplate reader (BMG labtech, PHERAstar FS), chemiluminescence was measured with the microplate reader.
# as §2
# T1 sequence (P27361 whole entry): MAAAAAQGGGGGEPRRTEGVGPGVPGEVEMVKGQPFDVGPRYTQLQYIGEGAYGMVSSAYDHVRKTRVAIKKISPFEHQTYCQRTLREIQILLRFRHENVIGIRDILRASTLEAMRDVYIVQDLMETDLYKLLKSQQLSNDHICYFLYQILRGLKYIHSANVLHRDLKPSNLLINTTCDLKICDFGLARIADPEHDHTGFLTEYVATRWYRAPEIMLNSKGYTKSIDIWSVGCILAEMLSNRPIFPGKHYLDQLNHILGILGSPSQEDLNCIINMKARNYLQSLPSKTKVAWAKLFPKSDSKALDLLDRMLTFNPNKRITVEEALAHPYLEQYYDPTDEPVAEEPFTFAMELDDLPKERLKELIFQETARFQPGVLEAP
IC50 (ERK1) [nM],Vd/F [1] [L/kg],AUC [1] [ng·h/mL],CL/F [1] [mL/min/kg],half-life [1] [h],Cmax [1] [ng/mL],MRT [1] [h],IC50 (ERK2) [nM],IC50 (Colo205 cells) [nM],SMILES
19,7.14,1820,18.4,4.49,1480,1.85,3,18,"COc1cc(F)cc([C@@H](CO)NC(=O)[C@@H](C)N2CCc3sc(-c4nc(NC5CCOCC5)ncc4Cl)cc3C2=O)c1 [Example 9-P2, (R)-2-(2-(5-Chloro-2-((tetrahydro-2H-pyran-4-yl)amino)pyrimidin-4-yl)-4-oxo-6,7-dihydrothieno[3,2-c]pyridin-5(4H)-yl)-N-((S)-1-(3-fluoro-5-methoxyphenyl)-2-hydroxyethyl)prop ionamide]"
32,1.99,1830,18.2,1.26,1000,1.64,5,50,"COc1cc(F)cc([C@@H](CO)NC(=O)[C@@H](C)N2CCc3sc(-c4nc(Nc5ccnn5C)ncc4C)cc3C2=O)c1 [Example 10-P2, (R)-N-((S)-1-(3-Fluoro-5-methoxyphenyl)-2-hydroxyethyl)-2-(2-(5-methyl-2-((1-methyl-1 H-pyrazol-5-yl)amino)pyrimidin-4-yl)-4-oxo-6,7-dihydrothieno[3,2-c]pyridin-5(4H)-yl)pro pionamide]"
5,,,,,,,2,16,"COc1cc(F)cc([C@@H](CO)NC(=O)[C@@H](C)N2CCc3sc(-c4ccnc(NC5CCOCC5)n4)cc3C2=O)c1 [Example 11, (R)-N-((S)-1-(3-Fluoro-5-methoxyphenyl)-2-hydroxyethyl)-2-(4-oxo-2-(2-((tetrahydro-2H-pyran-4-yl)amino)pyrimidin-4-yl)-6,7-dihydrothieno[3,2-c]pyridin-5(4H)-yl)-propionamide]"
24,4.77,1600,20.8,2.65,1480,1.05,2,5,"COc1cc(F)cc([C@@H](CO)NC(=O)[C@@H](C)N2CCc3sc(-c4nc(N[C@@H](C)CO)ncc4Cl)cc3C2=O)c1 [Example 12, (R)-2-(2-(5-Chloro-2-(((S)-1-hydroxypropan-2-yl)amino)pyrimidin-4-yl)-4-oxo-6,7-dihydrothieno[3,2-c]pyridin-5(4H)-yl)-N-((S)-1-(3-fluoro-5-methoxyphenyl)-2-hydroxyethyl)prop ionamide]"
27,,,,,,,6,14,"COc1cc(F)cc([C@@H](CO)NC(=O)[C@@H](C)N2CCc3sc(-c4nc(Nc5ccnn5C)ncc4Cl)cc3C2=O)c1 [Example 14, (R)-2-(2-(5-Chloro-2-((1-methyl-1H-pyrazol-5-yl)amino)pyrimidin-4-yl)-4-oxo-6,7-dihydrothieno[3,2-c]pyridin-5(4H)-yl)-N-((S)-1-(3-fluoro-5-methoxyphenyl)-2-hydroxyethyl)prop ionamide]"
3,,,,,,,1,,"COc1cc(F)cc([C@@H](CO)NC(=O)[C@@H](C)N2CCc3sc(-c4nc(NC5CCOCC5)ncc4C)cc3C2=O)c1 [Example 16, (R)-N-((S)-1-(3-Fluoro-5-methoxyphenyl)-2-hydroxyethyl)-2-(2-(5-methyl-2-((tetrahydro-2 H-pyran-4-yl)amino)pyrimidin-4-yl)-4-oxo-6,7-dihydrothieno[3,2-c]pyridin-5-(4H)-yl)prop ionamide]"
12,,,,,,,2,17,"COc1cc(F)cc([C@@H](CO)NC(=O)[C@@H](C)N2CCc3sc(-c4nc(N[C@@H](C)CO)ncc4C)cc3C2=O)c1 [Example 17, (R)-N-((S)-1-(3-Fluoro-5-methoxyphenyl)-2-hydroxyethyl)-2-(2-(2-(((S)-1-hydroxypropan-2-yl)amino)-5-methylpyrimidin-4-yl)-4-oxo-6,7-dihydrothieno[3,2-c]pyridin-5(4H)-yl)prop ionamide]"
